Test system: laccase
Conditions: 0.10 M citrate-phosphate buffer pH 2.5, room temperature; ABTS 0.05-1.00 mM; partially purified enzyme

`CCn1c(=NN=c2sc3cc(S(=O)(=O)O)ccc3n2CC)sc2cc(S(=O)(=O)O)ccc21` [ABTS, 2, 2'-azino-bis (3-ethylbenzothiazoline-6-sulphonic acid)] was tested, and the Km was 100 µM.

— article PMC4544649, “A psychrotolerant strain of Serratia marcescens (MTCC 4822) produces laccase at wide temperature and pH range” (AMB Express, 2015)
